Measurements: publication PMC7510464, “The wasp venom antimicrobial peptide polybia‐CP and its synthetic derivatives display antiplasmodial and anticancer properties” (Bioengineering & Translational Medicine, 2020)
No end group written: not given here.

Legend:
[1] = test system: Plasmodium gallinaceum sporozoites; experiment: Effect of peptides on salivary gland-derived P. gallinaceum sporozoites (membrane integrity, propidium iodide fluorescence); type: cell-based; details: peptides 0.39–6.25 μmol L^−1, 9000 sporozoites in 50 μl PBS, 37°C, 1 hr, fluorescence microscopy, three independent replicates
Protocol: To assess the antiplasmodial activity of Pol‐CP‐NH2 and its derivatives, the molecules were incubated with Plasmodium gallinaceum sporozoites. The avian malaria parasite, P. gallinaceum, was chosen as the plasmodium model for this study because it presents lower risk and it is highly similar ^27 , ^28 to existing Plasmodium falciparum models responsible for human malaria. ^29
FIGURE 2 Antiplasmodial activity of polybia‐CP and derivatives in vitro. […] In red, we highlight the conditions at which the peptides were not active against the Plasmodium sporozoites. Experiments were performed in three independent replicates with three repetitions for each condition
Nine thousand P. gallinaceum mature sporozoites were pulled from the salivary glands of A. aegypti and incubated in 50 μl of PBS solution, with 40 μmol L^−1 digitonin (positive control), 0.39–6.25 μmol L^−1 peptides or negative control (PBS solution), at 37°C for 1 hr. Cell membrane integrity was then observed using a Carl Zeiss inverted fluorescence microscope (model Observer Axio Vision A.1) coupled to an image capture Zeiss AxioCam HR digital camera (1,300 × 1,030 pixels resolution and 8‐bit quantization) after addition of 1 μl of the propidium iodide aqueous solution (200 μmol L^−1) in […] of total solution volume. Images were obtained using a ×40 objective lens and a green filter effect in red. […]

[2] = test system: human mammary cells (MCF-7); experiment: MTT assay, MCF-7 cells; type: cell-based; details: 570 nm, method gives serial dilutions 0.09–50 μmol L^−1, 2 and 24 hr (time for IC50 not stated), triplicate, NO = not observed, read-out: IC50, concentration of peptide needed for killing 50% of MCF-7
Protocol: (§1) Human mammary adenocarcinoma (MCF‐7) cells were maintained in RPMI 1640 medium supplemented with 10% heat inactivated fetal bovine serum and 100 μg ml^−1 penicillin/10 μg ml^−1 streptomycin. While hepatocellular carcinoma (Hep G2) cells, neuroblastoma (SHSY‐5Y) cells and melanoma (SK‐mel‐147) cells were maintained in RPMI 1640 medium supplemented with 10% heat inactivated fetal bovine serum and 100 μg ml^−1 penicillin/10 μg ml^−1 streptomycin. One day before the assays, the cells were plated in 96‐well microtiter plate with a density of 2.0 × 10^4 cells/well at 37°C and 5% CO2. On the next day, cells were treated with peptides serial dilutions (0.09–50 μmol L^−1), incubated in individual microtiter plates for 2 and 24 hr and MTT assays were performed after treatment. Human breast epithelial cells MCF‐10A (ATCC) were maintained in mixture of Dulbecco's modified Eagle's medium and Ham's F12 nutrient mixture supplemented with 5% inactivated horse serum, 10 μg ml^−1 insulin, 0.02 μg ml^−1 human epidermal growth factor, 0.5 μg ml^−1 hydrocortisone, 0.10 μg ml^−1 choleric toxin, 100 U ml^−1 penicillin, and 100 μg ml^−1 streptomycin. […]
(§2) Briefly, MTT (Sigma–Aldrich) was dissolved in water and filtered to make up a 5 μg ml^−1 solution. […] Finally, the microplates were read on an ELISA reader at 570 nm. […]

[3] = test system: carcinoma cells of human liver (HepG2); experiment: MTT assay, HepG2 cells; type: cell-based; details: 570 nm, method gives serial dilutions 0.09–50 μmol L^−1, 2 and 24 hr (time for IC50 not stated), triplicate, NO = not observed, read-out: IC50, concentration of peptide needed for killing 50% of HepG2
Protocol: as §1, §2

[4] = test system: neuroblastoma cell (SH-SY5Y); experiment: MTT assay, SH-SY5Y cells; type: cell-based; details: 570 nm, method gives serial dilutions 0.09–50 μmol L^−1, 2 and 24 hr (time for IC50 not stated), triplicate, NO = not observed, read-out: IC50, concentration of peptide needed for killing 50% of SH-SY5Y
Protocol: as §1, §2

[5] = test system: human embryonic kidney (HEK293) cells; details: at 25 μmol L^−1; cited from earlier work
Source text: The inhibitory activities observed against cancer cell lines are at the same range of concentrations reported for antimicrobial activity ^6 (Figure 2b) for this family of peptides.

Row | Substance | antiplasmodial activity (fluorescent sporozoites, membrane disrupted) [1] | IC50 [2] | IC50 [3] | IC50 [4] | toxicity against HEK293 cells [5]
1 | ILGKILGLLKSL-NH2 [[Lys]^4-Pol-CP-NH2] | most active ones against Plasmodium | 200 µM | > 50 µM | > 50 µM | –
2 | ILGTILGLLKSL-NH2 [Pol-CP-NH2, Ile‐Leu‐Gly‐Thr‐Ile‐Leu‐Gly‐Leu‐Leu‐Lys‐Ser‐Leu‐NH2] | – | 200 µM | – | – | one of the most toxic AMPs of the polybia‐CP family
